According to patent US5039665A, “Use of fructose-1,6-diphosphate for treating myocardial infarction” (priority 1990, dated 1991):
“And” between values parts separate entries of the source, which are not always exact repeats. Equal entries are not always repeated. “Also recorded” adds a separate entry of the source.

Key:
human WBC = test: carbohydrate metabolism of human white blood cells in vitro; type: cell-based; settings: for ATP content: incubated at 37° Celsius
Experimental: The tests were also conducted to investigate the effect of FDP on white blood cells (WBC) on metabolism in vitro. […] It was experimentally assessed whether FDP can stimulate the carbohydrate metabolism of these cells at rest. A similar phenomenon observed for normal human erythrocytes, sickle cells and dog erythrocytes. From healthy humans and dogs, the white blood cells were separated and incubated at 37° Celsius for various periods of time with FDP, glucose and normal saline. At the end of incubation, ATP and intermediates of the glycolytic pathway were assessed. […] The pyruvic acid concentration in dog WBC incubated with FDP was 10 times greater than those incubated in glucose while those for the human WBC, this difference was of much lesser degree (X2). The dihydroxyacetone (DHA) in the human and canine WBC was 5 to 10 times greater in the FDP incubated than in the glucose ones.

[1] = system: fluid deprived dogs after endotoxin; test: endotoxin shock in fluid deprived dogs (1 mg/kg endotoxin); type: in vivo, dog; settings: no fluid given; three pairs
Text: In three pairs no fluid was given except for the FDP and glucose.

[2] = system: dogs subjected to hemorrhagic shock; test: irreversible hemorrhagic shock in dogs (modified Wiggers technique, 35 mm Hg for 3 hours); type: in vivo, dog; settings: for survival after retransfusion: retransfused at three hours
Experimental: In the experiments regarding an irreversible hemorrhagic shock, results were obtained in the dog model using Wigger's modified technique. We compared a group of animals receiving IV administration of fructose-1,6-diphosphate (FDP) to a group receiving equimolar glucose.
The experiments were performed in b 25 pentobarbital anesthetized (30 mg/kg IV) mongrel dogs of both sexes. After induction of anesthesia the animals were […] and ventilated with a Harvard respiration pump with the use of ambient air. Secured in the left lateral decubitus position on the fluoroscopic table, a femoral artery was used to introduce a large bore polyethylene catheter which was connected to a 1.5 liter bottle elevated at 35 mm Hg above the atrial level. In the connecting system an external calibrated electromagnetic flow probe (Statham) was incorporated in order to follow the direction and amount of blood flow. The pressure in this system was monitored through a side opening with the aid of a Statham pressure gauge. The other femoral artery was percutaneously catheterized and a Judkins type pigtail catheter was advanced to the aortic root. In the course of the experiments this catheter was placed intermittently into the left ventricle when recordings were made. This set-up enable us to monitor both aortic and left ventricular pressures via a single catheter. The femoral vein on the side where the incision was made was catheterized as well as a superficial vein of the front limb transutaneously for administration of the FDP, glucose, heparin and supplemental anesthetic. Parameters such as aortic, ventricular and femoral pressures, and EKG were monitored on an Electronics for Medicine DR-8 recorder. Recording of these parameters was made every 15 min. Heparin ([…] initially and thereafter 3 mg/kg/2 hrs) and antibiotics were given to all animals that were allowed to recover. A control period of one hour was allowed prior to bleeding the animal. During this period two arterial blood samples were drawn for pH, pO2, pCO2, pCO2 combining power and lactic acid determinations. During the oliegemic phase four arterial samples were taken for determination of the same parameters described at 30 min, 1 hr, 2 hrs, and 2 hrs 45 min.
The blood from the animals was withdrawn via the femoral artery (50-55 ml/min) until the means arterial pressure dropped to 35 mm Hg and from then on the pressure was kept at this level for three hours. The protocol for evaluating the therapeutic effect of FDP was designed in the following manner. […] Both groups received an additional 500 mg IV bolus of FDP or glucose every 30 min for the duration of the oligemic phase. In five controls and six treated dogs the chest was opened at three hours and with the aid of a specially designed cutting tool that had been cooled in liquid nitrogen, frozen transmural sections from the left ventricle were taken for ATP, creatine phosphate (CP), FDP and lactic acid determinations. The remaining 14 animals (6 controls and 8 treated with FDP) were retransfused at three hours and allowed to recover.
The epicardium and endocardium from the frozen tissue were separated (while still frozen) and homogenized in 6% perchloric acid. The supernatant was used to determine ATP, CP and lactate. The ATP and creatine phosphate were assessed with the method described by Lamprecht (Lamprecht, W., and P. Stein. Methods of Enzymatic Analysis. Ed: H. V. Bergmeyer, New York, Academic Press, 1963, p. 610.) while lactate was measured by the method of Marback (Marback, E. P., and M. H. Weil. Rapid enzymatic measurement of blood lactate and pyruvate. Clin. Chem. 13: 314, 1967). Tissue content of FDP was assessed by the method of Bucher and Hohorst (Bucher, T., and H. J. Hohorst. Dihydroxyacetone phosphate, fructose 1-6 diphosphate and D-glyceraldehyde 3-phosphate. In. Methods of Enzymatic Analysis. Ed: Bermeyer, New York, Academic Press, 1963, pgs. 246-252.)

[3] = system: dogs subjected to endotoxin shock; test: endotoxin shock in dogs (E. coli endotoxin) with fluid support; type: in vivo, dog
Experimental: The study was also conducted to determine whether IV administration of FDP to dogs subjected to lethal doses of endotoxin will prevent damage to the intestinal mucosa, and death. The rationale was that endotoxin per se and its deleterious effect on hemolate phase acidosis inhibits glycolysis by inactivation of the rate limiting enzyme phosphofructokinase.
Endotoxin shock was produced in digs by IV injection of E. coli endotoxin. Survival of control animals which received glucose and volume replacement was 18%d while for those treated with FDP it was 90%.
FIG. 5 is a diagram showing the intestinal fluid loss and urine output of dogs subjected to endotoxin shock. Seven dogs were treated with equimolar FDP and eight received glucose. All animals received fluid supportive therapy (150 ml. of Rheomacrodex and 300 cc. of Lactate Ringer).
Seven were treated with FDP and the controls (8) received equimolar glucose.

[4] = system: dogs given potassium cyanide; test: potassium cyanide poisoning in dogs; type: in vivo, dog; settings: 2 mg/kg IV potassium cyanide; 0.5 gm/kg over 30 minutes
[5] = system: dogs subjected to toxic doses of Digoxin; test: digoxin toxicity in dogs; type: in vivo, dog; settings: for hemodynamic parameters (cardiac output, arterial pressure): dog, in vivo
Experimental: Dogs subjected to toxic doses of Digoxin were treated with FDP and glucose. […] Also the dogs treated with FDP survived, while the controls treated with Dextrose 5% died within 3 hours after administration of Digoxin. In this paired study 10 anesthesized dogs received 3 mg. IV Digoxin as bolus injection. Five of the digs received 20 minutes after the digoxin injection 1 gm. of FDP and then on 2 mg/kg as a constant infusion for the next 3 hours. The five controls received in the same manner Dextrose 5%. […] (Pi<0.001.).

## O=C(COP(=O)(O)O)[C@@H](O)[C@H](O)[C@H](O)COP(=O)(O)O [FDP, fructose-1,6-diphosphate]
Human WBC
  effect on carbohydrate metabolism: profound stimulating effect on the carbohydrate metabolism
  ATP content: 2.47±0.25 m.mole/#WBC
Human WBC; 5 to 50 mg/ml FDP, no AMP or ADP
  concentration dependence of ATP production: independent of the concentration (from 5 to 50 mg/ml), but rather a function of the incubation time
Human WBC; AMP or ADP added
  concentration dependence of ATP increase: the increase of ATP becomes a function of the FDP concentration
[1]
  survival: survived and are still living (five months after the experiment)
[2]; 3 hour duration at 35mm Hg AP
  outcome of irreversible experimental hemorrhagic shock: could be successfully treated with FDP
[2]; FDP by IV administration
  mortality: zero
[2]; FIG. 4, epicardium and endocardium, 35 mm. Hg. for 3 hours
  creatine phosphate (CP) depletion: prevents depletion of creatine phosphate (CP) in both epicardium and endocardium
[2]; FIG. 4, hypotension of 35 mm. Hg. for 3 hours, FDP vs controls
  ATP content in the epicardium: no significant difference in ATP content
[2]; Intravenous administration
  myocardial contractility: improves the myocardial contractility
[2]; after 2 hours of hemorrhage
  arterial plasma lactic acid, course after 2 hours: the plasma lactate continued to rise
[2]; after retransfusion
  heart rate return towards control: returned faster towards control
[2]; at three hours
  ATP myocardial content: normal ATP myocardial content and no transmural gradient
  CP in the epicardium (in words): no deficit in the epicardium
  creatine phosphate (CP) in the endocardium, less than normal: 18%
  endocardial/epicardial tissue lactate ratio: 2.26 ±0.26
[2]; dog, in vivo
  ATP and CP content in the myocardium / endocardium: restores ATP and CP content in the myocardium
  ST elevation (in words): only minimal elevation was observed in two animals
  activity of glycolysis in the endocardium: restores the depressed activity of glycolysis in the endocardium
  heart rate: < 200 beats/min
  plasma lactate and myocardial tissue lactate: increased plasma lactate and myocardial tissue lactate
[2]; dog, in vivo, listed as Fructose diphosphate
  ATP and CP content in the myocardium / endocardium: increased significantly the ATP and CP in the endocardium
[2]; measured at 2 hrs 45 min after the onset of hypotension
  plasma lactate: 124±16 mg %
[2]; not exceptional in the group treated with FDP
  arterial pH: ≤ 6.8
[2]; oligemic phase
  animals with spontaneous reversal of blood flow (from the bottle to the animal): only two of them reversed their flow
  electrocardiographic (EKG) ischemic changes: In both animals after FDP was given the ischemic changes disappeared; also recorded: prevents the EKG ischemic changes
[2]; oligemic phase, listed as Fructose diphosphate
  electrocardiographic (EKG) ischemic changes: prevented electrocardiographic ischemic changes
[2]
  survival after retransfusion: All 8 dogs treated with FDP survived
[2]; surviving dogs
  renal and bowel function, neurological deficit: normal renal and bowel function and no neurological deficit was noted
[2]; two FDP animals with reversed flow
  amount of blood uptake: 24 % of the shed blood and 17 % of the shed blood
[3]; dog, in vivo
  Urinary output: 276±98 ml/6 hours
  blood in the fluid lost from the intestine: no blood was observed; also recorded: no blood was noted
  intestinal fluid loss: 285±36 ml/6 hours
  stomach and intestine mucosa findings: only some vascular congestion was noted
  survival: 90%
[3]; lethal doses of endotoxin
  death, intestinal hemorrhage and fluid loss, renal function, mucosal necrosis: prevents death, intestinal hemorrhage and fluid loss, conserves normal renal function and protects the mucosa of the stomach and intestine from hemorrhagic necrosis
[4]
  survival: survived
[5]; 3 mg. IV Digoxin
  survival: survived
[5]; 3 mg. IV Digoxin, FDP 1 gm. then 2 mg/kg infusion for 3 hours
  digitalis induced dysarhythmia: suppresses significantly the digitalis induced dysarhythmia
[5]; P < 0.001
  occurrence of dysarhythmia versus controls, significance: significantly less in the group treated with FDP
[5]
  hemodynamic parameters (cardiac output, arterial pressure): no alternation in hemodynamic parameters

## O=C[C@H](O)[C@@H](O)[C@H](O)[C@H](O)CO [glucose, reference compound]
Human WBC
  ATP content: 1.28±0.21 m.mole/#WBC
[1]
  time to death: 21/2
[2]; 55 min to 1 hour 15 minutes after onset of shock
  ischemic EKG changes in control (glucose) animals: All control animals demonstrated ischemic EKG changes
[2]; at three hours
  creatine phosphate (CP) in the endocardium, less than normal: 88%
  creatine phosphate (CP) in the epicardium, less than normal: 64%
  endocardial ATP content, fall: 50%
  endocardial/epicardial tissue lactate ratio: 1.52±0.21
[2]; maximum at 2 hours, precordial leads
  ST elevation: 0.55±0.17 mV
[2]
  survival after retransfusion: All 6 control animals that were retransfused died within 24 hours
[3]; dog, in vivo
  blood in the fluid lost from the intestine: In all controls there was blood in the fluid lost from the intestine
  survival: 18%
[4]
  survival: died
[5]; after administration of Digoxin
  time to death: ≤ 3 h
[5]
  hemodynamic parameters (cardiac output, arterial pressure): decline in arterial pressure, vomiting, and perfused diarrhea
